In the supplement of paper PMC10307832:

Tests used:
Assay in all cases: relative viability (nuclei count vs DMSO), 5 days (fraction); higher = more cells survive
A-427 = test system: A-427
Outline: (§1)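 Cells from lung cancer lines were seeded into 1536-well plates and, one day later, dosed by pin tool. Treatments were either a single drug or a fixed dose of an anchor drug with five library-drug doses (not always all listed) in √10 steps. After 5 days, nuclei were stained in a one-step fixation (final 0.05% Triton X-100, 1% formaldehyde, 1 ug/ml Hoechst) and counted on 4× images, and relative viability is the treated-to-vehicle nuclei ratio, as the median of duplicate plates.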

CAL-12T = test system: CAL-12T
Outline: as §1

COR-L 105 = test system: COR-L 105
Outline: as §1

EMC-BAC-2 = test system: EMC-BAC-2
Outline: as §1

HARA = test system: HARA
Outline: as §1

HCC-366 = test system: HCC-366
Outline: as §1

HCC-827 = test system: HCC-827
Outline: as §1

HOP-62 = test system: HOP-62
Outline: as §1

LCLC-103H = test system: LCLC-103H
Outline: as §1

NCI-H1355 = test system: NCI-H1355
Outline: as §1

NCI-H1395 = test system: NCI-H1395
Outline: as §1

NCI-H1437 = test system: NCI-H1437
Outline: as §1

NCI-H1755 = test system: NCI-H1755
Outline: as §1

NCI-H1792 = test system: NCI-H1792
Outline: as §1

NCI-H1915 = test system: NCI-H1915
Outline: as §1

NCI-H1975 = test system: NCI-H1975
Outline: as §1

NCI-H2009 = test system: NCI-H2009
Outline: as §1

NCI-H2228 = test system: NCI-H2228
Outline: as §1

NCI-H23 = test system: NCI-H23
Outline: as §1

NCI-H460 = test system: NCI-H460
Outline: as §1

NCI-H727 = test system: NCI-H727
Outline: as §1

SK-LU-1 = test system: SK-LU-1
Outline: as §1

SW 1573 = test system: SW 1573
Outline: as §1

`NC(=O)Nc1cc(-c2cccc(F)c2)sc1C(=O)N[C@H]1CCCNC1` [AZD7762] + Cc1nc(Nc2ncc(C(=O)Nc3c(C)cccc3Cl)s2)cc(N2CCN(CCO)CC2)n1 [Dasatinib] (partner 0.075 µM) was tested, and the relative viability (A-427; first compound 0.01 µM) was 0.83, the relative viability (A-427; first compound 0.03162 µM) was 0.669 and the relative viability (A-427; first compound 0.1 µM) was 0.812. It also gave a relative viability (A-427; first compound 0.3162 µM) of 0.663, a relative viability (A-427; first compound 1 µM) of 0.218 and a relative viability (CAL-12T; first compound 0.01 µM) of 0.637. It also gave a relative viability (CAL-12T; first compound 0.03162 µM) of 0.463, a relative viability (CAL-12T; first compound 0.1 µM) of 0.47 and a relative viability (CAL-12T; first compound 0.3162 µM) of 0.23. The relative viability (CAL-12T; first compound 1 µM) was 0.0827, the relative viability (COR-L 105; first compound 0.01 µM) was 0.324 and the relative viability (COR-L 105; first compound 0.03162 µM) was 0.342. The relative viability (COR-L 105; first compound 0.1 µM) was 0.324, the relative viability (COR-L 105; first compound 0.3162 µM) was 0.251 and the relative viability (COR-L 105; first compound 1 µM) was 0.239. It also gave a relative viability (EMC-BAC-2; first compound 0.01 µM) of 0.373, a relative viability (EMC-BAC-2; first compound 0.03162 µM) of 0.37 and a relative viability (EMC-BAC-2; first compound 0.1 µM) of 0.359. It also gave a relative viability (EMC-BAC-2; first compound 0.3162 µM) of 0.346, a relative viability (EMC-BAC-2; first compound 1 µM) of 0.322 and a relative viability (HARA; first compound 0.01 µM) of 0.306. It also gave a relative viability (HARA; first compound 0.03162 µM) of 0.304, a relative viability (HARA; first compound 0.1 µM) of 0.275 and a relative viability (HARA; first compound 0.3162 µM) of 0.286. The relative viability (HARA; first compound 1 µM) was 0.164, the relative viability (HCC-366; first compound 0.01 µM) was 0.707 and the relative viability (HCC-366; first compound 0.03162 µM) was 0.625. For the same molecule, the relative viability (HCC-366; first compound 0.1 µM) was 0.659, the relative viability (HCC-366; first compound 0.3162 µM) was 0.421 and the relative viability (HCC-366; first compound 1 µM) was 0.177. The relative viability (HCC-827; first compound 0.01 µM) was 0.418, the relative viability (HCC-827; first compound 0.03162 µM) was 0.335 and the relative viability (HCC-827; first compound 0.1 µM) was 0.302. For the same molecule, the relative viability (HCC-827; first compound 0.3162 µM) was 0.31, the relative viability (HCC-827; first compound 1 µM) was 0.186 and the relative viability (HOP-62; first compound 0.01 µM) was 0.727. The relative viability (HOP-62; first compound 0.03162 µM) was 0.72, the relative viability (HOP-62; first compound 0.1 µM) was 0.682 and the relative viability (HOP-62; first compound 0.3162 µM) was 0.623. For the same molecule, the relative viability (HOP-62; first compound 1 µM) was 0.341, the relative viability (LCLC-103H; first compound 0.01 µM) was 0.555 and the relative viability (LCLC-103H; first compound 0.03162 µM) was 0.463. It also gave a relative viability (LCLC-103H; first compound 0.1 µM) of 0.422, a relative viability (LCLC-103H; first compound 0.3162 µM) of 0.515 and a relative viability (LCLC-103H; first compound 1 µM) of 0.284. It also gave a relative viability (NCI-H1355; first compound 0.01 µM) of 0.668, a relative viability (NCI-H1355; first compound 0.03162 µM) of 0.849 and a relative viability (NCI-H1355; first compound 0.1 µM) of 0.739. The relative viability (NCI-H1355; first compound 0.3162 µM) was 0.681, the relative viability (NCI-H1355; first compound 1 µM) was 0.506 and the relative viability (NCI-H1395; first compound 0.01 µM) was 0.449. For the same molecule, the relative viability (NCI-H1395; first compound 0.03162 µM) was 0.424, the relative viability (NCI-H1395; first compound 0.1 µM) was 0.427 and the relative viability (NCI-H1395; first compound 0.3162 µM) was 0.371. It also gave a relative viability (NCI-H1395; first compound 1 µM) of 0.302, a relative viability (NCI-H1437; first compound 0.01 µM) of 0.346 and a relative viability (NCI-H1437; first compound 0.03162 µM) of 0.586. It also gave a relative viability (NCI-H1437; first compound 0.1 µM) of 0.427, a relative viability (NCI-H1437; first compound 0.3162 µM) of 0.286 and a relative viability (NCI-H1437; first compound 1 µM) of 0.307. The relative viability (NCI-H1755; first compound 0.01 µM) was 0.276, the relative viability (NCI-H1755; first compound 0.03162 µM) was 0.428 and the relative viability (NCI-H1755; first compound 0.1 µM) was 0.416. For the same molecule, the relative viability (NCI-H1755; first compound 0.3162 µM) was 0.325, the relative viability (NCI-H1755; first compound 1 µM) was 0.215 and the relative viability (NCI-H1792; first compound 0.01 µM) was 0.814. The relative viability (NCI-H1792; first compound 0.03162 µM) was 0.861, the relative viability (NCI-H1792; first compound 0.1 µM) was 0.753 and the relative viability (NCI-H1792; first compound 0.3162 µM) was 0.891. The relative viability (NCI-H1792; first compound 1 µM) was 0.873, the relative viability (NCI-H1915; first compound 0.01 µM) was 0.32 and the relative viability (NCI-H1915; first compound 0.03162 µM) was 0.319. The relative viability (NCI-H1915; first compound 0.1 µM) was 0.327, the relative viability (NCI-H1915; first compound 0.3162 µM) was 0.335 and the relative viability (NCI-H1915; first compound 1 µM) was 0.272. For the same molecule, the relative viability (NCI-H1975; first compound 0.01 µM) was 0.339, the relative viability (NCI-H1975; first compound 0.03162 µM) was 0.347 and the relative viability (NCI-H1975; first compound 0.1 µM) was 0.42. The relative viability (NCI-H1975; first compound 0.3162 µM) was 0.305, the relative viability (NCI-H1975; first compound 1 µM) was 0.242 and the relative viability (NCI-H2009; first compound 0.01 µM) was 0.334. For the same molecule, the relative viability (NCI-H2009; first compound 0.03162 µM) was 0.287, the relative viability (NCI-H2009; first compound 0.1 µM) was 0.342 and the relative viability (NCI-H2009; first compound 0.3162 µM) was 0.282. The relative viability (NCI-H2009; first compound 1 µM) was 0.181, the relative viability (NCI-H2228; first compound 0.01 µM) was 0.67 and the relative viability (NCI-H2228; first compound 0.03162 µM) was 0.606. For the same molecule, the relative viability (NCI-H2228; first compound 0.1 µM) was 0.373, the relative viability (NCI-H2228; first compound 0.3162 µM) was 0.204 and the relative viability (NCI-H2228; first compound 1 µM) was 0.125. The relative viability (NCI-H23; first compound 0.01 µM) was 0.961, the relative viability (NCI-H23; first compound 0.03162 µM) was 0.832 and the relative viability (NCI-H23; first compound 0.1 µM) was 0.877. For the same molecule, the relative viability (NCI-H23; first compound 0.3162 µM) was 0.567, the relative viability (NCI-H23; first compound 1 µM) was 0.313 and the relative viability (NCI-H460; first compound 0.01 µM) was 0.531. For the same molecule, the relative viability (NCI-H460; first compound 0.03162 µM) was 0.578, the relative viability (NCI-H460; first compound 0.1 µM) was 0.443 and the relative viability (NCI-H460; first compound 0.3162 µM) was 0.304. It also gave a relative viability (NCI-H460; first compound 1 µM) of 0.0715, a relative viability (NCI-H727; first compound 0.01 µM) of 0.374 and a relative viability (NCI-H727; first compound 0.03162 µM) of 0.422. It also gave a relative viability (NCI-H727; first compound 0.1 µM) of 0.35, a relative viability (NCI-H727; first compound 0.3162 µM) of 0.284 and a relative viability (NCI-H727; first compound 1 µM) of 0.191. For the same molecule, the relative viability (SK-LU-1; first compound 0.01 µM) was 0.183, the relative viability (SK-LU-1; first compound 0.03162 µM) was 0.158 and the relative viability (SK-LU-1; first compound 0.1 µM) was 0.108. For the same molecule, the relative viability (SK-LU-1; first compound 0.3162 µM) was 0.126, the relative viability (SK-LU-1; first compound 1 µM) was 0.128 and the relative viability (SW 1573; first compound 0.01 µM) was 0.576. It also gave a relative viability (SW 1573; first compound 0.03162 µM) of 0.561, a relative viability (SW 1573; first compound 0.1 µM) of 0.45 and a relative viability (SW 1573; first compound 0.3162 µM) of 0.247. For the same molecule, the relative viability (SW 1573; first compound 1 µM) was 0.121.
